Results reported in patent US9737517B2, “Pharmaceutical use of hexahydro-dibenzo[a,g]quinolizine compounds” (SHANGHAI INSTITUTE OF MATERIA MEDICA, CHINESE ACADEMY OF …, priority 2013, dated 2017).

What was measured:
[1] = target: T1, α1A-AR (Homo sapiens, UniProt P35348); test: Calcium mobilization (Fluo-4) antagonism of phenylephrine in HEK293 cells expressing α1A-AR/Gα16; format: cell-based; conditions: for IC50: HEK293 α1A-AR/Gα16, calcium mobilization, phenylephrine 30 nM; for α1B/α1A: ratio of cell IC50 values, calcium mobilization
T1 construct: expressed in transfected cells; host or cells: HEK293
T1 sequence (P35348 1-466): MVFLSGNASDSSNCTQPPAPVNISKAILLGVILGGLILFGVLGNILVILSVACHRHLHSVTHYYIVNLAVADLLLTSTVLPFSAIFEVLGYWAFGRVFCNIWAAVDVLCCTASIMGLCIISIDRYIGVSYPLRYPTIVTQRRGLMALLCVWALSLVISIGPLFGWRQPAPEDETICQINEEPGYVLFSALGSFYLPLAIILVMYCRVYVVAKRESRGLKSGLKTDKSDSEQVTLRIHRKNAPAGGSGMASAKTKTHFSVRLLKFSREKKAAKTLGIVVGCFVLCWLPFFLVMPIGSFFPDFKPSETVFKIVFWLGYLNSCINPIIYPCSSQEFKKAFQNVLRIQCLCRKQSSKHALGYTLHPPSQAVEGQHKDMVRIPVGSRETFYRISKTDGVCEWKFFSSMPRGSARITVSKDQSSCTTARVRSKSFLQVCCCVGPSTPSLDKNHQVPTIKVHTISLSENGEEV
Protocol: (§1) HEK293 cells stably expressing α1A-AR/Gα16, α1B-AR/Gα16, α1D-AR/Gα16 were seeded in a 96-well plate, and cultured for 24 hours. Then the medium was removed and 40 μL Hank's balanced salt solution (HBSS: containing 5.4 mM KCl, 0.3 mM Na2HPO4, 0.4 mM KH2PO4, 4.2 mM NaHCO3, 1.3 mM CaCl2, 0.5 mM MgCl2, 0.6 mM MgSO4, 137 mM NaCl, 5.6 mM D-glucose, and 250 μM sulfinpyrazone, pH 7.4) containing 2 μM Fluo-4 AM was added into each well, and incubated at 37° C. for 45 min. Dye was removed and 50 μL of HBSS containing either test compound or 1% DMSO (negative control) was added. After incubation at room temperature for 10 min, Flex Station 3 microplate reader was used to read the value. At specified time points, 25 μL of agonist (phenylephrine, final concentration 30 nM) was dispensed into the well automatically using the reader and fluorescence intensity change of dye caused by intracellular calcium concentration change was detected at an excitation wavelength of 485 nm and an emission wavelength of 525 nm.
(§2) After incubation with different drugs, the reaction rate of cells to 1-AR agonist phenylephrine was calculated as follows: Reaction rate %=(D−B)/(S−B)*100%;
(§3) The reaction rate of the same drug at different doses was tested using GraphPad Prism software by non-linear regression analysis, and the dose-response curve was obtained and IC50 values was measured. Data were obtained from three separate experiments, and each experiment included three duplicate wells.

[2] = target: T2, α1B-AR (Homo sapiens, UniProt P35368); test: Calcium mobilization (Fluo-4) antagonism of phenylephrine in HEK293 cells expressing α1B-AR/Gα16; format: cell-based; conditions: phenylephrine 30 nM
T2 construct: expressed in transfected cells; host or cells: HEK293
T2 sequence (P35368 1-520): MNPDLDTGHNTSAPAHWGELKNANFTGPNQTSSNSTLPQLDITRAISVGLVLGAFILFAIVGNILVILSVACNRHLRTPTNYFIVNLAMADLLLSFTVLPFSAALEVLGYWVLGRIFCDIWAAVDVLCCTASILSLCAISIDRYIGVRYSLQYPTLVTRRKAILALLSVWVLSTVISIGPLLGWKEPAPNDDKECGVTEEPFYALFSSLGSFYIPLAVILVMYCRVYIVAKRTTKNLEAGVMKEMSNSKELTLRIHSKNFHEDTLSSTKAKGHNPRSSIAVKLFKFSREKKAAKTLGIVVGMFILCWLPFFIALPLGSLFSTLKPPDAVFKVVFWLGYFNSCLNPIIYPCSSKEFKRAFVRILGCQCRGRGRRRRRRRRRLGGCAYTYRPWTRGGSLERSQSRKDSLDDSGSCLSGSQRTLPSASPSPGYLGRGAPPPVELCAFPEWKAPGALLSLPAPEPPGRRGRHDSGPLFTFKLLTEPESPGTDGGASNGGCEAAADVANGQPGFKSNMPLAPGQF
Protocol: as §1, §2, §3

[3] = target: T3, α1D-AR (Homo sapiens, UniProt P25100); test: Calcium mobilization (Fluo-4) antagonism of phenylephrine in HEK293 cells expressing α1D-AR/Gα16; format: cell-based; conditions: phenylephrine 30 nM
T3 construct: expressed in transfected cells; host or cells: HEK293
T3 sequence (P25100 1-572): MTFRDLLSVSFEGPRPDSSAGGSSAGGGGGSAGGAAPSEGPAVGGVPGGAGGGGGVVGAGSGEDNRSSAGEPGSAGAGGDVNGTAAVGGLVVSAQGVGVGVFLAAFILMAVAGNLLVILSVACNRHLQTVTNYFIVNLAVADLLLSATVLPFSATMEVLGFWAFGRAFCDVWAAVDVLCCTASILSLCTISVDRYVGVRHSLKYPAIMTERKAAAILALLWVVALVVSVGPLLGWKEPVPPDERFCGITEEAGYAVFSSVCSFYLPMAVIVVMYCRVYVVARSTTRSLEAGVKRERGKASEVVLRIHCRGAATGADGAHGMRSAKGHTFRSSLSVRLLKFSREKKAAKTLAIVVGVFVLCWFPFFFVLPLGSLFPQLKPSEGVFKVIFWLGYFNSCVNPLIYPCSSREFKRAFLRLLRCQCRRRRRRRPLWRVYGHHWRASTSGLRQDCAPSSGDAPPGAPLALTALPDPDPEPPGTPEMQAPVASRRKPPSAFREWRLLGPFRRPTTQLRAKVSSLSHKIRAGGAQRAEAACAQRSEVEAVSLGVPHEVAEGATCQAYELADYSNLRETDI
Protocol: as §1, §2, §3

[4] = target: T1, α1A-AR; test: Tag-lite receptor binding assay, HEK293 cells expressing SNAP-α1A-AR
Description: (§4) Tag-lite assay was used to study receptor binding activity. Tag-lite assay was a combination of SNAP-Tag and HTRF technology, and was used to analyze surface receptors on live cell. SNAPs were small tag fusion proteins which could irreversibly, specifically and covalently bind to substrates via benzylmethyl, and the substrates were benzylmethyl guanine and benzylmethyl cytosine. Substrates and various dyes formed derivatives, and through covalent reaction, the dye was labeled onto SANPs. Plasmid was constructed using pSNAP and α1-AR encoding gene. After transfection into cells, N-terminal fusion protein of SNAP and α1-AR was expressed. The substrate and HTRF fluorescent dye (donor compound Lumi4-Tb) formed a derivative which reacted with SANP-α1-AR fusion protein so that Tb was labeled onto α1-AR. After adding acceptor fluorescent dye-labeled ligand, the receptor and ligand binding experiment was performed.
(§5) HEK293 cells stably expressing SNAP-α1A-AR, SNAP-α1B-AR, SNAP-α1D-AR were seeded in 3 cm dishes, and cultured for 24 hours. 100 nM Tag-lite SNAP Lumi4Tb was added and incubated for 1 h in an incubator. Cells were detached and washed with a labeling buffer for 4 times, and then was added into a 384-well plate in a volume of 10 μL per well. […] After incubation at room temperature for 1 hour, fluorescence intensity changes caused by cell receptor and ligand changes were detected using 665 nm (acceptor) and 620 nm (donor) at same time.
(§6) After incubation with different drugs, the reaction rate of cells to 1-AR fluorescein-labeled known ligand was calculated as follows: Reaction rate %=(D−B)/(S−B)*100%
as §3, with “Ki” for “IC50”, “includes” for “included”

[5] = target: T2, α1B-AR; test: Tag-lite receptor binding assay, HEK293 cells expressing SNAP-α1B-AR
Description: as §4, §5, §6
as §3, with “Ki” for “IC50”, “includes” for “included”

[6] = tested on: urethra smooth muscle; test: In vitro urethra smooth muscle experiment (norepinephrine-induced contraction); design: species or system Wistar rats; Urethra inhibition rate (%): concentration or dose not given beside the values; conditions: for IC50: isolated rat prostatic urethra, norepinephrine 3×10^−4 mol/L; for Urethra inhibition rate (%): isolated rat urethra, norepinephrine-induced contraction; for Aorta/Urethra: selectivity ratio of IC50 values, isolated rat tissues
Protocol: Healthy male Wistar rats were hit head to cause faint. The abdominal cavity and the pubic symphysis was quickly cut so as to quickly remove the prostatic urethra, which was immediately placed into a dish filled with 4° C. Kerbs-Henseleit solution (K-H solution). The surrounding tissue were carefully separated, and muscle strips about 3-5 mm were obtained, and the lower end was fixed onto a 20 mL of thermostatic bath and the upper end was connected onto a pressure transducer. Nutrient liquid was K-H solution, and carbogen (95% oxygen and 5% carbon dioxide) was aerated, and the bath temperature was 37° C., and resting tension applied was 0.5 g. The nutrient liquid was replaced every 6-8 mins. Until baseline stabilized, norepinephrine was added with a final concentration of 3×10^−4 mol/L in bath tube. When the contraction curve reached the highest point, it was rinsed immediately to recover to baseline levels. When baseline was stabilized, test drug with different concentrations was added respectively, and incubated 3-5 mins. 60 μL 1×10^−1 M norepinephrine was added with a final concentration of 3×10^−4 mol/L in bath tube, and the contraction curve was recorded.

[7] = tested on: vascular smooth muscle (thoracic aorta); test: In vitro vascular smooth muscle experiment (norepinephrine-induced contraction of thoracic aorta rings); design: species or system Wistar rats; conditions: isolated rat thoracic aorta rings, norepinephrine 10^−7 mol/L
Protocol: Healthy male Wistar rats were hit head to cause faint. The abdominal cavity was quickly cut, and the thoracic aorta was taken out. The attached tissue was separated and cut into 2-3 mm vascular rings. The experiment was carried out in the same manner as in urethral smooth muscle experiment. The resting tension applied was 1 g, and when baseline was stabilized, norepinephrine was added with a final concentration of 10^−7 mol/L in bath tube. When the contraction curve reached the highest point, rinse was performed immediately to recover to baseline levels. When baseline was stabilized, test drug with different concentrations was added respectively, and incubated 3-5 mins. 20 μL 1×10^−4 M norepinephrine was added with a final concentration of 10^−7 mol/L in bath tube, and contraction curve was recorded.

| SMILES | IC50 [1] [nM] | α1B/α1A [1] | IC50 [2] [nM] | IC50 [3] [nM] | IC50 ([4]; Tag-lite binding, HEK293 SNAP-α1A-AR) [nM] | α1B/α1A ([4]; ratio of Tag-lite binding values) | IC50 [5] [nM] | IC50 [6] [nM] | Urethra inhibition rate (%) [6] [%] | Aorta/Urethra [6] | IC50 [7] [nM] |
| --- | --- | --- | --- | --- | --- | --- | --- | --- | --- | --- | --- |
| COc1cc2c(cc1OC)CN1CCc3cc(OC)c(OC)cc3C1C2 (centres unmarked) [DC037001] | 123 | 1.4 | 174 | 8710 | – | – | – | – | – | – | – |
| COc1cc2c(cc1OC)[C@@H](C)N1CCc3cc(OC)c(OC)cc3[C@@H]1C2 [DC037002] | 502 | 34.2 | 17200 | 2520 | – | – | – | – | – | – | – |
| COc1cc2c(cc1OC)CN1CCc3cc(OC)c(OC)cc3[C@@H]1C2 [DC037003] | 91.3 | 2731 | 249000 | 2480 | – | – | – | – | – | – | – |
| COc1ccc2c(c1)CCN1Cc3cc(OC)c(OC)cc3C[C@@H]21 [DC037004] | 93.9 | 2.0 | 189 | 422 | – | – | – | – | – | – | – |
| COc1cc2c(cc1OC)[C@@H]1Cc3cc4c(cc3CN1CC2)OCO4 [DC037005] | 160 | 10.3 | 1650 | 2950 | – | – | – | – | – | – | – |
| COc1ccc(OC)c2c1C[C@H]1c3cc4c(cc3CCN1C2)OCO4 [DC037007] | 969 | 13.4 | 13000 | 75.8 | – | – | – | – | – | – | – |
| COc1cc2c(cc1OC)C1Cc3cc4c(cc3CN1CC2)OCO4 (centres unmarked) [DC037008] | 552 | 125 | 68800 | 2120 | – | – | – | – | – | – | – |
| COc1cc2c(c(OC)c1OC)CN1CCc3cc4c(cc3[C@@H]1C2)OCO4 [DC037010] | 238 | 5.0 | 1200 | 2560 | – | – | – | – | – | – | – |
| COc1cc2c(cc1OC)[C@@H]1Cc3cc(C)cc(C)c3CN1CC2 [DC037011] | 532 | 64.4 | 34300 | 2640 | – | – | – | – | – | – | – |
| COc1cc2c(cc1OC)CN1CCc3cc4c(cc3C1C2)OCO4 (centres unmarked) [DC037012] | 257 | 29.2 | 7520 | 242 | – | – | – | – | – | – | – |
| COc1cc2c(cc1O)[C@@H]1Cc3cc4c(cc3CN1CC2)OCO4 [DC037013] | 268 | 16.1 | 4310 | 263 | – | – | – | – | – | – | – |
| COc1cc2c(cc1OCc1ccccc1)CN1CCc3cc4c(cc3[C@@H]1C2)OCO4 [DC037014] | 303 | 118.5 | 35900 | 1340 | – | – | – | – | – | – | – |
| COc1cc2c(cc1OCC(F)F)C[C@H]1c3cc4c(cc3CCN1C2)OCO4 [DC037018] | – | – | – | – | 0.95 | 51.2 | 48.6 | 147 | 61 | 61 | 2210 |
| CCOc1ccccc1OCCN[C@H](C)Cc1ccc(OC)c(S(N)(=O)=O)c1 [Tamsulosin, reference compound] | – | – | 3.08 | 0.18 | – | – | 0.16 | 0.47 | 82 | 0.53 | 0.25 |
